Where a SMILES comes first, the peptide text is derived from it. Bridges are numbered along the chain shown (N, C = ends). [ ]: non-standard residue; d: D form. The star is where a group is joined. ξ: configuration not given here. Quinoxaline2carbonyl = O=C(c1cnc2ccccc2n1)*; ξDap = NCC(N)C(=O)O
Key:
[1] = target: Human immunodeficiency virus type 1 reverse transcriptase (Human immunodeficiency virus 1) (UniProt Q72547); assay: Inhibition of HIV1 reverse transcriptase assessed as reduction in [3H]dTTP incorporation by measuring proportional residual activity ratio at 20 uM using poly(rA)/oligo(dT) as template/primer after 30 mins by scintillation counting method relative to control
[2] = target: Human immunodeficiency virus type 1 reverse transcriptase (Human immunodeficiency virus 1) (UniProt Q72547); assay: Inhibition of HIV1 reverse transcriptase assessed as reduction in [3H]dTTP incorporation by measuring proportional residual activity ratio at 300 uM using poly(rA)/oligo(dT) as template/primer after 30 mins by scintillation counting method

| Ratio [1] | Ratio [2] | Compound |
| --- | --- | --- |
| – | 0.4 | NC(=O)[C@H](Cc1c[nH]c2ccccc12)NC(=O)CNC(=O)[C@@H](N)Cc1c[nH]c2ccccc12 |
| – | 0.47 | NC(=O)C[C@@H](NC(=O)[C@H](N)Cc1c[nH]c2ccccc12)C(=O)N[C@H](Cc1c[nH]c2ccccc12)C(N)=O |
| – | 0.45 | NC(=O)[C@@H](Cc1c[nH]c2ccccc12)NC(=O)[C@@H](N)Cc1c[nH]c2ccccc12 |
| – | 0.62 | NC(=O)C[C@H](NC(=O)[C@@H](N)Cc1c[nH]c2ccccc12)C(=O)N[C@@H](Cc1c[nH]c2ccccc12)C(N)=O |
| – | 0.69 | NC(=O)C[C@H](NC(=O)[C@H](N)Cc1c[nH]c2ccccc12)C(=O)N[C@@H](Cc1c[nH]c2ccccc12)C(N)=O |
| – | 0.63 | NC(=O)[C@H](Cc1c[nH]c2ccccc12)NC(=O)CNC(=O)[C@H](N)Cc1c[nH]c2ccccc12 |
| – | 0.44 | NC(=O)C[C@H](NC(=O)[C@@H](N)Cc1c[nH]c2ccccc12)C(=O)N[C@H](Cc1c[nH]c2ccccc12)C(N)=O |
| – | 0.65 | NC(=O)[C@H](Cc1c[nH]c2ccccc12)NC(=O)[C@@H](N)Cc1c[nH]c2ccccc12 |
| – | 0.7 | NC(=O)[C@@H](Cc1c[nH]c2ccccc12)NC(=O)[C@H](N)Cc1c[nH]c2ccccc12 |
| – | 0.76 | NC(=O)[C@@H](Cc1c[nH]c2ccccc12)NC(=O)CNC(=O)[C@H](N)Cc1c[nH]c2ccccc12 |
| – | 0.6 | NC(=O)C[C@@H](NC(=O)[C@@H](N)Cc1c[nH]c2ccccc12)C(=O)N[C@@H](Cc1c[nH]c2ccccc12)C(N)=O |
| – | 0.35 | NC(=O)C[C@@H](NC(=O)[C@@H](N)Cc1c[nH]c2ccccc12)C(=O)N[C@H](Cc1c[nH]c2ccccc12)C(N)=O |
| – | 0.34 | NC(=O)C[C@@H](NC(=O)[C@H](N)Cc1c[nH]c2ccccc12)C(=O)N[C@@H](Cc1c[nH]c2ccccc12)C(N)=O |
| – | 0.74 | NC(=O)[C@@H](Cc1c[nH]c2ccccc12)NC(=O)CNC(=O)[C@@H](N)Cc1c[nH]c2ccccc12 |
| – | 0.61 | NC(=O)[C@H](Cc1c[nH]c2ccccc12)NC(=O)[C@H](N)Cc1c[nH]c2ccccc12 |
| – | 0.69 | NC(=O)C[C@H](NC(=O)[C@H](N)Cc1c[nH]c2ccccc12)C(=O)N[C@H](Cc1c[nH]c2ccccc12)C(N)=O |

Continued, molecule first:

| Compound | Ratio [1] | Ratio [2] |
| --- | --- | --- |
| NCC1NC(=O)C[C@@H](C(N)=O)NC(=O)CNC(=O)CNC(=O)C(CNC(=O)c2cnc3ccccc3n2)NC(=O)CNC(=O)C(CNC(=O)c2cnc3ccccc3n2)NC1=O (some centres not stated) ([ξDap][ξDap](Quinoxaline2carbonyl)G[ξDap](Quinoxaline2carbonyl)GGD-NH2; lactam N-7) | 0.11 | – |
| NCC1NC(=O)C[C@@H](C(N)=O)NC(=O)C(CNC(=O)c2cnc3ccccc3n2)NC(=O)CNC(=O)C(CNC(=O)c2cnc3ccccc3n2)NC(=O)C(CNC(=O)c2cnc3ccccc3n2)NC(=O)CNC1=O (stereo partly drawn) ([ξDap]G[ξDap](Quinoxaline2carbonyl)[ξDap](Quinoxaline2carbonyl)G[ξDap](Quinoxaline2carbonyl)D-NH2; lactam N-7) | 0.14 | – |
| NCC1NC(=O)C[C@@H](C(N)=O)NC(=O)C(CNC(=O)c2cnc3ccccc3n2)NC(=O)C(CNC(=O)c2cnc3ccccc3n2)NC(=O)C(CNC(=O)c2cnc3ccccc3n2)NC(=O)CNC(=O)CNC1=O (stereo partly drawn) ([ξDap]GG[ξDap](Quinoxaline2carbonyl)[ξDap](Quinoxaline2carbonyl)[ξDap](Quinoxaline2carbonyl)D-NH2; lactam N-7) | 0.16 | – |
| NCC1NC(=O)C[C@@H](C(N)=O)NC(=O)C(CNC(=O)c2cnc3ccccc3n2)NC(=O)CNC(=O)C(CNC(=O)c2cnc3ccccc3n2)NC(=O)CNC(=O)CNC1=O (stereo partly drawn) ([ξDap]GG[ξDap](Quinoxaline2carbonyl)G[ξDap](Quinoxaline2carbonyl)D-NH2; lactam N-7) | 0.18 | – |
| NCC1NC(=O)C[C@@H](C(N)=O)NC(=O)CNC(=O)CNC(=O)CNC(=O)C(CNC(=O)c2cnc3ccccc3n2)NC(=O)C(CNC(=O)c2cnc3ccccc3n2)NC1=O (some centres not stated) ([ξDap][ξDap](Quinoxaline2carbonyl)[ξDap](Quinoxaline2carbonyl)GGGD-NH2; lactam N-7) | 0.3 | – |
| NCC1NC(=O)C[C@@H](C(N)=O)NC(=O)C(CNC(=O)c2cnc3ccccc3n2)NC(=O)C(CNC(=O)c2cnc3ccccc3n2)NC(=O)CNC(=O)CNC(=O)C(CNC(=O)c2cnc3ccccc3n2)NC1=O (stereo partly drawn) ([ξDap][ξDap](Quinoxaline2carbonyl)GG[ξDap](Quinoxaline2carbonyl)[ξDap](Quinoxaline2carbonyl)D-NH2; lactam N-7) | 0.13 | – |
| NCC1NC(=O)C[C@@H](C(N)=O)NC(=O)CNC(=O)CNC(=O)C(CNC(=O)c2cnc3ccccc3n2)NC(=O)C(CNC(=O)c2cnc3ccccc3n2)NC(=O)C(CNC(=O)c2cnc3ccccc3n2)NC1=O (some centres not stated) ([ξDap][ξDap](Quinoxaline2carbonyl)[ξDap](Quinoxaline2carbonyl)[ξDap](Quinoxaline2carbonyl)GGD-NH2; lactam N-7) | 0.04 | – |
| NCC1NC(=O)C[C@@H](C(N)=O)NC(=O)C(CNC(=O)c2cnc3ccccc3n2)NC(=O)CNC(=O)C(CNC(=O)c2cnc3ccccc3n2)NC(=O)CNC(=O)C(CNC(=O)c2cnc3ccccc3n2)NC1=O (stereo partly drawn) ([ξDap][ξDap](Quinoxaline2carbonyl)G[ξDap](Quinoxaline2carbonyl)G[ξDap](Quinoxaline2carbonyl)D-NH2; lactam N-7) | 0.18 | – |
| NCC1NC(=O)C[C@@H](C(N)=O)NC(=O)CNC(=O)C(CNC(=O)c2cnc3ccccc3n2)NC(=O)CNC(=O)C(CNC(=O)c2cnc3ccccc3n2)NC(=O)C(CNC(=O)c2cnc3ccccc3n2)NC1=O (some centres not stated) ([ξDap][ξDap](Quinoxaline2carbonyl)[ξDap](Quinoxaline2carbonyl)G[ξDap](Quinoxaline2carbonyl)GD-NH2; lactam N-7) | 0.03 | – |
| NCC1NC(=O)C[C@@H](C(N)=O)NC(=O)CNC(=O)C(CNC(=O)c2cnc3ccccc3n2)NC(=O)C(CNC(=O)c2cnc3ccccc3n2)NC(=O)CNC(=O)C(CNC(=O)c2cnc3ccccc3n2)NC1=O (some centres not stated) ([ξDap][ξDap](Quinoxaline2carbonyl)G[ξDap](Quinoxaline2carbonyl)[ξDap](Quinoxaline2carbonyl)GD-NH2; lactam N-7) | 0.09 | – |
| NCC1NC(=O)C[C@@H](C(N)=O)NC(=O)CNC(=O)C(CNC(=O)c2cnc3ccccc3n2)NC(=O)C(CNC(=O)c2cnc3ccccc3n2)NC(=O)CNC(=O)CNC1=O (some centres not stated) ([ξDap]GG[ξDap](Quinoxaline2carbonyl)[ξDap](Quinoxaline2carbonyl)GD-NH2; lactam N-7) | 0.57 | – |
| NCC1NC(=O)C[C@@H](C(N)=O)NC(=O)CNC(=O)CNC(=O)C(CNC(=O)c2cnc3ccccc3n2)NC(=O)CNC(=O)CNC1=O (some centres not stated) ([ξDap]GG[ξDap](Quinoxaline2carbonyl)GGD-NH2; lactam N-7) | 0.66 | – |
| NCC1NC(=O)C[C@@H](C(N)=O)NC(=O)C(CNC(=O)c2cnc3ccccc3n2)NC(=O)C(CNC(=O)c2cnc3ccccc3n2)NC(=O)CNC(=O)C(CNC(=O)c2cnc3ccccc3n2)NC(=O)CNC1=O (stereo partly drawn) ([ξDap]G[ξDap](Quinoxaline2carbonyl)G[ξDap](Quinoxaline2carbonyl)[ξDap](Quinoxaline2carbonyl)D-NH2; lactam N-7) | 0.15 | – |
| NC(=O)[C@H](Cc1c[nH]c2ccccc12)NC(=O)CCCNC(=O)[C@H](N)Cc1c[nH]c2ccccc12 | – | 0.43 |
| NC(=O)[C@@H](Cc1c[nH]c2ccccc12)NC(=O)CCNC(=O)[C@@H](N)Cc1c[nH]c2ccccc12 | – | 0.46 |
| NC(=O)[C@@H](Cc1c[nH]c2ccccc12)NC(=O)CCCNC(=O)[C@H](N)Cc1c[nH]c2ccccc12 | – | 0.36 |
